Where two headings read alike, the source gives them in different places.
Columns and labels:
[1] = tested on: SMO L416F mutant cell line; assay: C3H10T1/2 cell differentiation assay in SMO L416F mutant cell line versus wild type; format: cell-based, mouse; conditions: for Fold reduction in potency in SMO L416F mutant cell line: SMO L416F mutant cell line compared to the wild type, C3H10T1/2 cell differentiation assay
Description: FIG. 1 is a graph of the percent inhibition of C3H10T1/2 cell differentiation of vismodegib compared to compound of the invention (compound number 174), in wild type versus SMO L416F mutant cell line.
Loss of Potency in C3H10T1/2 Cell Differentiation Assay Associated with Presence of SMO L416F Mutation.
Table 3 below details the number of fold reduction in potency of a range of compounds of the invention when applied to the SMO L416F mutant cell line compared to the wild type. SMO mutation has been described in the literature (Pricl, Sabrina, et al.) as a key mutation causative of vismodegib resistance in the clinic by interfering with drug binding.

C3H10T1/2 cells = assay: C3H assay: differentiation of C3H10T1/2 cells by mSHH, measurement of alkaline phosphatase; format: cell-based, mouse; conditions: C3H10T1/2 cells stimulated with mSHH for 72 hours, alkaline phosphatase activity, read-out: IC50 Ranges
SMO = target: T1, SMO (Homo sapiens, UniProt Q99835); assay: Smoothened (SMO) binding fluorescence polarisation assay (BODIPY-cyclopamine competition); conditions: SMO binding FP assay versus C3H10T1/2 cellular assay
T1 construct: expressed in transfected cells; host or cells: HEK293
T1 sequence (Q99835 28-787): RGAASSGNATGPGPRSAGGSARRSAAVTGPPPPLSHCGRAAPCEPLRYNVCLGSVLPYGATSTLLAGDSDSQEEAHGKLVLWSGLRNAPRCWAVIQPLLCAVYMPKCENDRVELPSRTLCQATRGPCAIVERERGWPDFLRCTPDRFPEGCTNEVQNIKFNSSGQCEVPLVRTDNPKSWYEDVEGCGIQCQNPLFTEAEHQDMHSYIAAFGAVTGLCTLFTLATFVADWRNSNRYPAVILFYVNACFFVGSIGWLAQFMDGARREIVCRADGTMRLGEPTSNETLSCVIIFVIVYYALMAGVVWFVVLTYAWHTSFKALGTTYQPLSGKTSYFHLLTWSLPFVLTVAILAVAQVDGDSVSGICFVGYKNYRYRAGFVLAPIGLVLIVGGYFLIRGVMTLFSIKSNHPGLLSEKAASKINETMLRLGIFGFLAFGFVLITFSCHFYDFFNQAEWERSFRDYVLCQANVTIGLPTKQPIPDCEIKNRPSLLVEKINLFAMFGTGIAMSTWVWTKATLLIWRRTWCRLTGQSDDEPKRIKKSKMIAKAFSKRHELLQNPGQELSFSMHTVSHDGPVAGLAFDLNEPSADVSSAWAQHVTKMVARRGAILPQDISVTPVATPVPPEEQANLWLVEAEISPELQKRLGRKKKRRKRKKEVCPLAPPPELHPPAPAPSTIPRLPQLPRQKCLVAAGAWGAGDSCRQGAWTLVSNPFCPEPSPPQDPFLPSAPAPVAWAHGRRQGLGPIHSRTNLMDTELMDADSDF
Method: Standard Protocol for Smoothened (SMO) Binding Fluorescence Polarisation Assay.
The assay measures the ability of the test compounds to compete with a fluorescently-labelled version of the known ligand, cyclopamine, for binding to SMO. The fluorescent tag used is BODIPY (boron dipyrromethene).
An aliquot of a membrane preparation from a SMO-over-expressing HEK293 cell line is diluted to protein concentration of 0.117 mg/ml in assay buffer (25 mM HEPES, 2 mM EDTA, 0.05% γ-globulin, 0.01% pluronic acid pH7.4, plus protease Inhibitor cocktail). 8.5 μl of the membrane suspension is added to each well of a black, low volume 384 well microtitre plate.
Test compounds are added in a seven point dilution range to the wells containing the membrane preparation. The final DMSO solvent concentration in the wells is maintained at 0.3%. 6.5 μl of a 6.9 nM BODIPY-cyclopamine solution is added to each of the wells (final assay concentration 3 nM).
The plate is sealed and stored in the dark at room temperature for 24 hours prior to measurement of the fluorescence polarisation signal on a Perkin Elmer Envision multi-label reader.
Table 4 below details the ratio of SMO binding compared to the potency in the C3H10T1/2 cellular assay. The small ratio between SMO binding and potency for vismodegib is considered to be reflective of the fact vismodegib acts mainly through inhibition of the SMO protein. The larger ratios for the compound of the invention are considered to be reflective of alternate actions outside of direct SMO inhibition.

SMILES	Fold reduction in potency in SMO L416F mutant cell line [1]	IC50 (C3H10T1/2 cells; Mus musculus, C3H 10T1/2)	IC50 (C3H10T1/2 cells)	percent inhibition of C3H10T1/2 cell differentiation ([1]; FIG. 1, compared to vismodegib, wild type versus SMO L416F mutant cell line)	Ratio of potency in SMO binding assay to potency in C3H10T1/2 cellular assay (SMO)
CC(C)C(CO)NC(=O)N1CC(S(=O)(=O)N2CCC(c3c[nH]c4ncccc34)CC2)C1 (racemic) [Compound 26, N-[1-(Hydroxymethyl)-2-methyl-propyl]-3-[[4-(1H-pyrrolo[2,3-b]pyridin-3-yl)-1-piperidyl]sulfonyl]azetidine-1-carboxamide]	67	10 to 100 nM			
O=C(OC1CCCCC1)N1CC(S(=O)(=O)N2CCC(c3c[nH]c4ncccc34)CC2)C1 [Compound 75, cyclohexyl 3-[4-(1H-pyrrolo[2,3-b]pyridin-3-yl)piperidin-1-yl]sulfonylaze-tidine-1-carboxylate]	60	10 to 100 nM			
O=C(NCCc1cccs1)N1CC(S(=O)(=O)N2CCC(c3c[nH]c4ncccc34)CC2)C1 [Compound 84, 3-[4-(1H-pyrrolo[2,3-b]pyridin-3-yl)piperidin-1-yl]sulfonyl-N-(2-thiophen-2-ylethyl)azetidine-1-carboxamide]	50	10 to 100 nM			
O=C(N1CCOCC1)N1CC(S(=O)(=O)N2CCC(c3c[nH]c4ncccc34)CC2)C1 [Compound 88, morpholin-4-yl-[3-[4-(1H-pyrrolo[2,3-b]pyridin-3-yl)piperidin-1-yl]sulfonylaze-tidin-1-yl]methanone]	27	100 to 1000 nM			
Cc1noc(C)c1NC(=O)N1CC(S(=O)(=O)N2CCC(c3c[nH]c4ncccc34)CC2)C1 [Compound 120, N-(3,5-dimethyl-1,2-oxazol-4-yl)-3-[4-(1H-pyrrolo[2,3-b]pyridin-3-yl)piperidin-1-yl]sulfonylaze-tidine-1-carboxamide]	38	10 to 100 nM			
Cc1noc(C)c1OC(=O)N1CC(S(=O)(=O)N2CCC(c3c[nH]c4ncccc34)CC2)C1 [Compound 160, (3,5-dimethyl-1,2-oxazol-4-yl) 3-[4-(1H-pyrrolo[2,3-b]pyridin-3-yl)piperidin-1-yl]sulfonylaze-tidine-1-carboxylate]	29	< 10 nM			
CC(C)[C@H]1CC[C@H](C)C[C@@H]1OC(=O)N1CC(S(=O)(=O)N2CCC(c3c[nH]c4ncccc34)CC2)C1 [Compound 166, [(1S,2R,5S)-5-methyl-2-propan-2-ylcyclohexyl] 3-[4-(1H-pyrrolo[2,3-b]pyridin-3-yl)piperidin-1-yl]sulfonylaze-tidine-1-carboxylate]	51	< 10 nM			
O=C(OCC1CCCCC1)N1CC(S(=O)(=O)N2CCC(c3c[nH]c4ncccc34)CC2)C1 [Compound 168, cyclohexylmethyl 3-[4-(1H-pyrrolo[2,3-b]pyridin-3-yl)piperidin-1-yl]sulfonylaze-tidine-1-carboxylate]	33	10 to 100 nM			
O=C(NC12CC3CC(CC(C3)C1)C2)N1CC(S(=O)(=O)N2CCC(c3c[nH]c4ncccc34)CC2)C1 [Compound 171, N-(1-adamantyl)-3-[4-(1H-pyrrolo [2,3-b]pyridin-3-yl)piperidin-1-yl]sulfonylaze-tidine-1-carboxamide]	38		< 10 nM		
CC(C)(C)NC(=S)N1CC(S(=O)(=O)N2CCC(c3c[nH]c4ncccc34)CC2)C1 [Compound 174, N-tert-butyl-3-[4-(1H-pyrrolo[2,3-b]pyridin-3-yl)piperidin-1-yl]sulfonylaze-tidine-1-carbothioamide]		10 to 100 nM		a lower concentration of compound 174 is required to achieve the same percent inhibition of differentiation	
CC(C)(C)CC(C)(C)NC(=O)N1CC(S(=O)(=O)N2CCC(c3c[nH]c4ncccc34)CC2)C1 [Compound 175, 3-[4-(1H-pyrrolo[2,3-b]pyridin-3-yl)piperidin-1-yl]sulfonyl-N-(2,4,4-trimethylpentan-2-yl)azetidine-1-carboxamide]	40	< 10 nM			
CC(C)(C)OC(=O)N1CC(S(=O)(=O)N2CCC(c3csc4ncccc34)CC2)C1 [Compound 177, tert-butyl 3-(4-thieno [2,3-b]pyridin-3-ylpiperidin-1-yl)sulfonylaze-tidine-1-carboxylate]	37	10 to 100 nM			
O=C(OCc1ccccc1C(F)(F)F)N1CC(S(=O)(=O)N2CCC(c3c[nH]c4ncccc34)CC2)C1 [Compound 216, [2-(trifluoromethyl)phenyl]methyl 3-[4-(1H-pyrrolo[2,3-b]pyridin-3-yl)piperidin-1-yl]sulfonylaze-tidine-1-carboxylate]	47	< 10 nM			
COc1ccccc1OC(=O)N1CC(S(=O)(=O)N2CCC(c3c[nH]c4ncccc34)CC2)C1 [Compound 217, (2-methoxyphenyl) 3-[4-(1H-pyrrolo[2,3-b]pyridin-3-yl)piperidin-1-yl]sulfonylaze-tidine-1-carboxylate]	34	< 10 nM			
C[C@](O)(C(=O)N1CC(S(=O)(=O)N2CCC(c3c[nH]c4ncccc34)CC2)C1)C(F)(F)F [Compound 388, (2S)-3,3,3-trifluoro-2-hydroxy-2-methyl-1-[3-[4-(1H-pyrrolo[2,3-b]pyridin-3-yl)piperidin-1-yl]sulfonylaze-tidin-1-yl]propan-1-one]		10 to 100 nM			5.4
C[C@](O)(C(=O)N1CC(S(=O)(=O)N2CCC(c3coc4cccnc34)CC2)C1)C(F)(F)F [Compound 395, (2S)-3,3,3-trifluoro-1-[3-(4-furo[3,2-b]pyridin-3-ylpiperidin-1-yl)sulfonyl-azetidin-1-yl]-2-hydroxy-2-methylpropan-1-one]		100 to 1000 nM			2.6
CC(C)(C)C(=O)CN1CC(S(=O)(=O)N2CCC(c3ccc(Cl)cc3)CC2)C1 [Compound 396, 1-[3-[4-(4-chlorophenyl)piperidin-1-yl]sulfonylaze-tidin-1-yl]-3,3-dimethylbutan-2-one]		100 to 1000 nM			2.5
CC(C)(O)CC(=O)N1CC(S(=O)(=O)N2CCC(c3c[nH]c4ncccc34)CC2)C1 [Compound 397, 3-hydroxy-3-methyl-1-[3-[4-(1H-pyrrolo[2,3-b]pyridin-3-yl)piperidin-1-yl]sulfonylaze-tidin-1-yl]butan-1-one]		100 to 1000 nM			3.6
O=C(CC(O)(C(F)(F)F)C(F)(F)F)N1CC(S(=O)(=O)N2CCC(c3ccncc3)CC2)C1 [Compound 401, 4,4,4-trifluoro-3-hydroxy-1-[3-(4-pyridin-4-ylpiperidin-1-yl)sulfonylaze-tidin-1-yl]-3-(trifluoromethyl) butan-1-one]		100 to 1000 nM			3.0
CC(C)(C)OC(=O)N1CC(S(=O)(=O)N2CCC(c3ccnc4ccccc34)CC2)C1 [Compound 410, tert-butyl 3-(4-quinolin-4-ylpiperidin-1-yl)sulfonylaze-tidine-1-carboxylate]		100 to 1000 nM			3.1

Reference: patent US10961238B2, “Modulators of hedgehog (Hh) signaling pathway” (E-THERAPEUTICS PLC, priority 2016, dated 2021)
